Reference: PubChem BioAssay (NCI)
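How tested: cells in 96-well plates exposed to compound for 48 hours at five concentrations. At the TGI there is no net growth.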

How the values were obtained:
Assay in all cases: DTP human tumour cell line panel, 48 h
A498 renal = tested on: A498 renal
SNB-19 CNS = tested on: SNB-19 CNS
M14 melanoma = tested on: M14 melanoma
SF-295 CNS = tested on: SF-295 CNS
BT-549 breast = tested on: BT-549 breast
DU-145 prostate = tested on: DU-145 prostate
TK-10 renal = tested on: TK-10 renal
ACHN renal = tested on: ACHN renal
OVCAR-3 ovarian = tested on: OVCAR-3 ovarian
OVCAR-8 ovarian = tested on: OVCAR-8 ovarian
UACC-62 melanoma = tested on: UACC-62 melanoma
U251 CNS = tested on: U251 CNS
COLO 205 colon = tested on: COLO 205 colon
EKVX NSCLC = tested on: EKVX NSCLC
RPMI-8226 leukemia = tested on: RPMI-8226 leukemia
RXF 393 renal = tested on: RXF 393 renal
UO-31 renal = tested on: UO-31 renal
SF-268 CNS = tested on: SF-268 CNS
HCT-15 colon = tested on: HCT-15 colon
NCI-H522 lung = tested on: NCI-H522 lung
SK-MEL-2 melanoma = tested on: SK-MEL-2 melanoma
HCT-116 colon = tested on: HCT-116 colon
HOP-62 NSCLC = tested on: HOP-62 NSCLC
OVCAR-5 ovarian = tested on: OVCAR-5 ovarian
HCC-2998 colon = tested on: HCC-2998 colon
CCRF-CEM leukemia = tested on: CCRF-CEM leukemia
UACC-257 melanoma = tested on: UACC-257 melanoma
KM12 colon = tested on: KM12 colon
HT29 colon = tested on: HT29 colon
IGROV1 ovarian = tested on: IGROV1 ovarian
SNB-75 CNS = tested on: SNB-75 CNS
MCF7 breast = tested on: MCF7 breast
OVCAR-4 ovarian = tested on: OVCAR-4 ovarian
786-0 renal = tested on: 786-0 renal
MALME-3M melanoma = tested on: MALME-3M melanoma
SK-MEL-28 melanoma = tested on: SK-MEL-28 melanoma
SN12C renal = tested on: SN12C renal
PC-3 prostate = tested on: PC-3 prostate
A549 NSCLC = tested on: A549 NSCLC
NCI-H23 lung = tested on: NCI-H23 lung
NCI-H226 lung = tested on: NCI-H226 lung
HOP-92 NSCLC = tested on: HOP-92 NSCLC
HS 578T breast = tested on: HS 578T breast
CAKI-1 renal = tested on: CAKI-1 renal
T-47D breast = tested on: T-47D breast
HL-60(TB) leukemia = tested on: HL-60(TB) leukemia
MOLT-4 leukemia = tested on: MOLT-4 leukemia
SK-MEL-5 melanoma = tested on: SK-MEL-5 melanoma
SF-539 CNS = tested on: SF-539 CNS
MDA-N = tested on: MDA-N
LOX IMVI melanoma = tested on: LOX IMVI melanoma
MDA-MB-231 breast = tested on: MDA-MB-231 breast
SR leukemia = tested on: SR leukemia
SK-OV-3 ovarian = tested on: SK-OV-3 ovarian
NCI/ADR-RES ovarian = tested on: NCI/ADR-RES ovarian
MDA-MB-435 = tested on: MDA-MB-435
SW-620 colon = tested on: SW-620 colon
DMS 273 small cell lung = tested on: DMS 273 small cell lung
KM20L2 colon = tested on: KM20L2 colon
DLD-1 colon = tested on: DLD-1 colon
M19-MEL melanoma = tested on: M19-MEL melanoma
SNB-78 CNS = tested on: SNB-78 CNS
K-562 leukemia = tested on: K-562 leukemia
NCI-H460 lung = tested on: NCI-H460 lung
LXFL 529 NSCLC = tested on: LXFL 529 NSCLC

## Cc1cn(C2CC(O)C(Cn3cc(Cn4ncc(=O)[nH]c4=O)nn3)O2)c(=O)[nH]c1=O (stereo not drawn)
A498 renal
  TGI: > 100 µM
SNB-19 CNS
  TGI: > 100 µM
M14 melanoma
  TGI: > 100 µM
SF-295 CNS
  TGI: > 100 µM
BT-549 breast
  TGI: > 100 µM
DU-145 prostate
  TGI: > 100 µM
TK-10 renal
  TGI: > 100 µM
ACHN renal
  TGI: > 100 µM
OVCAR-3 ovarian
  TGI: > 100 µM
OVCAR-8 ovarian
  TGI: > 100 µM
UACC-62 melanoma
  TGI: > 100 µM
U251 CNS
  TGI: > 100 µM
COLO 205 colon
  TGI: > 100 µM
EKVX NSCLC
  TGI: > 100 µM
RPMI-8226 leukemia
  TGI: > 100 µM
RXF 393 renal
  TGI: > 100 µM
UO-31 renal
  TGI: > 100 µM
SF-268 CNS
  TGI: > 100 µM
HCT-15 colon
  TGI: > 100 µM
NCI-H522 lung
  TGI: > 100 µM
SK-MEL-2 melanoma
  TGI: > 100 µM
HCT-116 colon
  TGI: > 100 µM
HOP-62 NSCLC
  TGI: > 100 µM
OVCAR-5 ovarian
  TGI: > 100 µM
HCC-2998 colon
  TGI: > 100 µM
CCRF-CEM leukemia
  TGI: > 100 µM
UACC-257 melanoma
  TGI: > 100 µM
KM12 colon
  TGI: > 100 µM
HT29 colon
  TGI: > 100 µM
IGROV1 ovarian
  TGI: > 100 µM
SNB-75 CNS
  TGI: > 100 µM
MCF7 breast
  TGI: > 100 µM
OVCAR-4 ovarian
  TGI: > 100 µM
786-0 renal
  TGI: > 100 µM
MALME-3M melanoma
  TGI: > 100 µM
SK-MEL-28 melanoma
  TGI: > 100 µM
SN12C renal
  TGI: > 100 µM
PC-3 prostate
  TGI: > 100 µM
A549 NSCLC
  TGI: > 100 µM
NCI-H23 lung
  TGI: > 100 µM
NCI-H226 lung
  TGI: > 100 µM
HOP-92 NSCLC
  TGI: > 100 µM
HS 578T breast
  TGI: > 100 µM
CAKI-1 renal
  TGI: > 100 µM
T-47D breast
  TGI: > 100 µM
HL-60(TB) leukemia
  TGI: > 100 µM
MOLT-4 leukemia
  TGI: > 100 µM
SK-MEL-5 melanoma
  TGI: > 100 µM
SF-539 CNS
  TGI: > 100 µM
MDA-N
  TGI: > 100 µM
LOX IMVI melanoma
  TGI: > 100 µM
MDA-MB-231 breast
  TGI: > 100 µM
SR leukemia
  TGI: > 100 µM
SK-OV-3 ovarian
  TGI: > 100 µM
NCI/ADR-RES ovarian
  TGI: > 100 µM
MDA-MB-435
  TGI: > 100 µM
SW-620 colon
  TGI: > 100 µM

## COc1ccc(CNC2=C(NC(C)=O)C(=O)c3ccccc3C2=O)cc1
DMS 273 small cell lung
  TGI: > 50 µM
KM20L2 colon
  TGI: > 50 µM
SNB-19 CNS
  TGI: > 50 µM
M14 melanoma
  TGI: > 50 µM
SF-295 CNS
  TGI: > 50 µM
TK-10 renal
  TGI: 18.1 µM
ACHN renal
  TGI: 8.69 µM
OVCAR-3 ovarian
  TGI: 20.8 µM
OVCAR-8 ovarian
  TGI: > 50 µM
UACC-62 melanoma
  TGI: 33.5 µM
U251 CNS
  TGI: 47.5 µM
COLO 205 colon
  TGI: 16.4 µM
EKVX NSCLC
  TGI: 47.3 µM
RXF 393 renal
  TGI: 12.8 µM
UO-31 renal
  TGI: 40.2 µM
SF-268 CNS
  TGI: > 50 µM
HCT-15 colon
  TGI: > 50 µM
NCI-H522 lung
  TGI: 5.17 µM
SK-MEL-2 melanoma
  TGI: 19.2 µM
HCT-116 colon
  TGI: 19.9 µM
HOP-62 NSCLC
  TGI: > 50 µM
HCC-2998 colon
  TGI: > 50 µM
CCRF-CEM leukemia
  TGI: 24.7 µM
UACC-257 melanoma
  TGI: 21.7 µM
KM12 colon
  TGI: > 50 µM
HT29 colon
  TGI: > 50 µM
IGROV1 ovarian
  TGI: > 50 µM
SNB-75 CNS
  TGI: 49.5 µM
OVCAR-4 ovarian
  TGI: 15.1 µM
786-0 renal
  TGI: > 50 µM
MALME-3M melanoma
  TGI: 15.2 µM
SK-MEL-28 melanoma
  TGI: > 50 µM
SN12C renal
  TGI: > 50 µM
DLD-1 colon
  TGI: 22.8 µM
M19-MEL melanoma
  TGI: 17.4 µM
SNB-78 CNS
  TGI: 40.6 µM
A549 NSCLC
  TGI: > 50 µM
K-562 leukemia
  TGI: 26.4 µM
NCI-H23 lung
  TGI: 14.7 µM
NCI-H226 lung
  TGI: > 50 µM
HOP-92 NSCLC
  TGI: 13 µM
HL-60(TB) leukemia
  TGI: 7.45 µM
MOLT-4 leukemia
  TGI: 17.7 µM
SK-MEL-5 melanoma
  TGI: 14.1 µM
SF-539 CNS
  TGI: 21.9 µM
LOX IMVI melanoma
  TGI: 18.7 µM
SR leukemia
  TGI: > 50 µM
SK-OV-3 ovarian
  TGI: > 50 µM
NCI-H460 lung
  TGI: > 50 µM
SW-620 colon
  TGI: 14.9 µM
LXFL 529 NSCLC
  TGI: 14.9 µM
